Patent US5087620A, “Controlled dermal penetration enhancement using imidazoles” (Bristol-Myers Squibb Co., priority 1990, dated 1992)

Assays:
volar forearms [1] = experiment: Vasoconstriction (skin blanching) assay, double-blind within subject study (Example 2); assay type: in vivo, human; conditions: inclusion of dermal penetration controlling amount of SNO3, PG and IPM
Protocol: (§1) Equal amounts of each coded test medication (approximately 10 mg) were applied to 2cm^2 sites on the volar forearms and left in place, unoccluded, for 8 hours. Vasoconstriction was assessed by grading the degree of blanching on a 4-point scale (none, mild, moderate, marked) at each test site at 4, 8, 10, 12 and 24 hours after application. Statistical analysis of the area under the curve (AUC) was conducted by ranking the AUC scores within each subject and performing an analysis of variance on the ranks (Friedman Test).

volar forearms [2] = experiment: Vasoconstriction assay of Examples 3, 4 and 5 versus DIPROSONE and KENALOG (Example 6); assay type: in vivo, human
Protocol: as §1

[3] = In vitro skin penetration study, excised human skin, Franz diffusion cells (Example 1A-1C); assay type: in vitro ADME
Protocol: Normal excised human skin samples obtained from breast reduction were used. Appropriate size specimens were frozen on the microtome with carbon dioxide and sectioned to a layer around 200 micrometers thick and stored in normal saline at 5° C. The skin sections were mounted on 9 mm inside diameter flat-top Franz diffusion cells. The diffusional cross-sectional area of the skin was 0.636 cm^2. A 50 microliter sample of a test formulation was placed on the skin in the donor compartment and the receiver compartment was filled with about 5 ml of normal saline (with pH adjusted to 4 with citric acid) and was well stirred. Water at 37.4° C. was circulated throughout the water jacket of the diffusion cell. A 100 microliter sample was withdrawn from the receiver compartment at appropriate intervals and analyzed for drug content by HPLC. The receptor fluid was replenished with normal saline after each withdrawal. All the receptor fluid and replenished fluid were thoroughly degassed before use.

forearms of humans = conditions: general rule; depends on vehicle and concentration; cited from earlier work

| Structure (SMILES) | topical potency class (vasoconstriction assay) (forearms of humans) | further results |
| --- | --- | --- |
| CC1(C)O[C@@H]2C[C@H]3[C@@H]4CCC5=CC(=O)C=C[C@]5(C)[C@@]4(F)[C@@H](O)C[C@]3(C)[C@]2(C(=O)CO)O1 [TACA, triamcinolone acetonide] | mid-potency | potency class of TACA with SNO3, PG and IPM (volar forearms [1]): high potency steroid; potency class of TACA with SNO3, PG and IPM (volar forearms [2]; inclusion of SNO3, PG and IPM): high potency; TACA concentration needed for high potency in comparison to Kenalog cream (0.1% TACA) (volar forearms [2]; with SNO3, PG and IPM): three fold lower; penetration through the entire skin thickness (extent) [3]: only a small amount |
| C[C@H]1C[C@H]2[C@@H]3CCC4=CC(=O)C=C[C@]4(C)[C@@]3(F)[C@@H](O)C[C@]2(C)[C@@]1(O)C(=O)CO [betamethasone] | high potency | – |
| C[C@H]1C[C@H]2[C@@H]3CCC4=CC(=O)C=C[C@]4(C)[C@@]3(F)[C@@H](O)C[C@]2(C)[C@@]1(O)C(=O)CCl [clobetasol] | ultra high potency | – |
| C[C@]12CCC(=O)C=C1CC[C@@H]1[C@@H]2[C@@H](O)C[C@@]2(C)[C@H]1CC[C@]2(O)C(=O)CO [hydrocortisone] | low potency | – |
| C[C@H]1C[C@@H]2[C@H]([C@@H](O)C[C@@]3(C)[C@H]2CC[C@]3(O)C(=O)CO)[C@@]2(C)C=CC(=O)C=C12 [methylprednisolone] | low potency | – |
| C[C@]12C=CC(=O)C=C1CC[C@@H]1[C@@H]2[C@@H](O)C[C@@]2(C)[C@H]1CC[C@]2(O)C(=O)CO [prednisolone] | low potency | – |
